Results reported in patent US8461160B2, “Dihydropyrimidinones” (Hoffmann-La Roche, Inc., priority 2009, dated 2013).
pIC50: −log10 of the molar value.

Molecular target: T1, BACE2 (Homo sapiens, UniProt Q9Y5Z0)
T1 construct: BACE2 enzyme ectodomain (derived from plasmid “pET17b-T7-hu proBACE2”) was prepared as described in Ostermann et al; T7 tag (N); made in house
T1 sequence (Q9Y5Z0 21-473 limits assumed): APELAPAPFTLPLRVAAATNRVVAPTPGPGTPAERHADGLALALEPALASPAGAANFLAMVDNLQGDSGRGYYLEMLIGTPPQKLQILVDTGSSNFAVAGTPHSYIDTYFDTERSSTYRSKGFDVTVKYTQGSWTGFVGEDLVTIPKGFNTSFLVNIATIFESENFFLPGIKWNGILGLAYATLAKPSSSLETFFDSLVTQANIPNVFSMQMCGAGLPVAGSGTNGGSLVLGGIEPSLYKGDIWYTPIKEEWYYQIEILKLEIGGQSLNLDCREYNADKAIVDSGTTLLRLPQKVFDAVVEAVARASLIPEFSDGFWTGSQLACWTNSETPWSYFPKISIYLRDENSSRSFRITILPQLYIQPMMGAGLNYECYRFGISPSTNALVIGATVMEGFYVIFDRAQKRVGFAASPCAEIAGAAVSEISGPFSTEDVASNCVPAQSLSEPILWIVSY
Experiment: Fluorescent-peptide cleavage assay for BACE2 inhibition
Assay type: biochemical
Conditions: BACE2 enzyme ectodomain, fluorescent peptide WS EVNLD AEFRC-MR121, assay buffer pH 4.5, room temperature
Method in brief: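 Pro-enzyme BACE2 was activated at 80 nM for 1 h at room temperature in 100 mM Na-acetate, 20 mM EDTA, 0.05% BSA, pH 4.5, then preincubated 10 min with compound. IC50 from sigmoidal dose-response fit.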

pIC50 | Compound
7.57 | CN1C(=O)C(C)(C)[C@@](C)(c2cc(NC(=O)c3cnc(Cl)cn3)ccc2F)N=C1N [Example 107, 5-Chloro-pyrazine-2-carboxylic acid [3-((S)-2-amino-1,4,5,5-tetramethyl-6-oxo-1,4,5,6-tetrahydro-pyrimidin-4-yl)-4-fluoro-phenyl]amide]
6.39 | CN1C(=O)C[C@@](C)(c2cccc(NC(=O)c3ccc4ccccc4n3)c2)N=C1N [Example 58, Quinoline-2-carboxylic acid [3-((S)-2-amino-1,4-dimethyl-6-oxo-1,4,5,6-tetrahydro-pyrimidin-4-yl)-phenyl]-amide]
8.15 | CC[C@@]1(c2cccc(NC(=O)c3ncc(Cl)cn3)c2)CC(=O)N(C)C(N)=N1 [Example 44, 5-Chloro-pyrimidine-2-carboxylic acid [3-((S)-2-amino-4-ethyl-1-methyl-6-oxo-1,4,5,6-tetrahydro-pyrimidin-4-yl)-phenyl]-amide]
8.00 | C[C@@]1(c2cccc(NC(=O)c3ccc(Cl)cn3)c2)CC(=O)N(Cc2ccccc2)C(N)=N1 [Example 50, 5-Chloro-pyridine-2-carboxylic acid [3-((S)-2-amino-1-benzyl-4-methyl-6-oxo-1,4,5,6-tetrahydro-pyrimidin-4-yl)-phenyl]amide]
6.62 | CN1C(=O)C[C@@](C)(c2cccc(NC(=O)c3nccc4ccsc34)c2)N=C1N [Example 60, Thieno[2,3-c]pyridine-7-carboxylic acid [3-((S)-2-amino-1,4-dimethyl-6-oxo-1,4,5,6-tetrahydro-pyrimidin-4-yl)-phenyl]-amide]
5.90 | CN1C(=O)C(C)(C)[C@@](C)(c2cc(NC(=O)c3cn(C)cn3)ccc2F)N=C1N [Example 112, 1-Methyl-1H-imidazole-4-carboxylic acid [3-((S)-2-amino-1,4,5,5-tetramethyl-6-oxo-1,4,5,6-tetrahydro-pyrimidin-4-yl)-4-fluoro-phenyl]amide]
5.68 | CN1C(=O)C[C@@](C)(c2cccc(NC(=O)c3ccn(CC(F)(F)F)n3)c2)N=C1N [Example 73, 1-(2,2,2-Trifluoro-ethyl)-1H-pyrazole-3-carboxylic acid [3-((S)-2-amino-1,4-dimethyl-6-oxo-1,4,5,6-tetrahydro-pyrimidin-4-yl)-phenyl]-amide]
6.96 | CN1C(=O)C[C@@](C)(c2cccc(NC(=O)c3cn4ccccc4n3)c2)N=C1N [Example 9, Imidazo[1,2-a]pyridine-2-carboxylic acid [3-((S)-2-amino-1,4-dimethyl-6-oxo-1,4,5,6-tetrahydro-pyrimidin-4-yl)-phenyl]amide]
6.43 | CN1C(=O)C(C)(C)[C@@](C)(c2cccc(NC(=O)c3nccc4ccsc34)c2)N=C1N [Example 96, Thieno[2,3-c]pyridine-7-carboxylic acid [3-((R)-2-amino-1,4,5,5-tetramethyl-6-oxo-1,4,5,6-tetrahydro-pyrimidin-4-yl)-phenyl]amide]
7.68 | CN1C(=O)C[C@@](C)(c2cccc(NC(=O)c3ncccc3-c3ccccc3)c2)N=C1N [Example 37, 3-Phenyl-pyridine-2-carboxylic acid [3-((S)-2-amino-1,4-dimethyl-6-oxo-1,4,5,6-tetrahydro-pyrimidin-4-yl)-phenyl]-amide]
6.08 | Cc1cc(C(=O)Nc2ccc(F)c([C@@]3(C)N=C(N)N(C)C(=O)C3(C)C)c2)no1 [Example 116, 5-Methyl-isoxazole-3-carboxylic acid [3-((S)-2-amino-1,4,5,5-tetramethyl-6-oxo-1,4,5,6-tetrahydro-pyrimidin-4-yl)-4-fluoro-phenyl]amide]
7.41 | CC[C@@]1(c2cccc(NC(=O)c3ccccn3)c2)CC(=O)N(C)C(N)=N1 [Example 40, Pyridine-2-carboxylic acid [3-((S)-2-amino-4-ethyl-1-methyl-6-oxo-1,4,5,6-tetrahydro-pyrimidin-4-yl)-phenyl]-amide]
6.64 | CN1C(=O)C(C)(C)[C@@](C)(c2cc(NC(=O)c3ncco3)ccc2F)N=C1N [Example 117, Oxazole-2-carboxylic acid [3-((S)-2-amino-1,4,5,5-tetramethyl-6-oxo-1,4,5,6-tetrahydro-pyrimidin-4-yl)-4-fluoro-phenyl]amide]
7.31 | Cc1cccnc1C(=O)Nc1ccc(F)c([C@@]2(C)N=C(N)N(C)C(=O)C2(C)C)c1 [Example 105, 3-Methyl-pyridine-2-carboxylic acid [3-((S)-2-amino-1,4,5,5-tetramethyl-6-oxo-1,4,5,6-tetrahydro-pyrimidin-4-yl)-4-fluoro-phenyl]amide]
7.01 | Cc1nc(C(=O)Nc2cccc([C@]3(C)CC(=O)N(C)C(N)=N3)c2)c(C)o1 [Example 4, 2,5-Dimethyl-oxazole-4-carboxylic acid [3-((S)-2-amino-1,4-dimethyl-6-oxo-1,4,5,6-tetrahydro-pyrimidin-4-yl)-phenyl]amide]
7.60 | COc1ccc(C(=O)Nc2cccc([C@]3(C)CC(=O)N(C)C(N)=N3)c2)nc1 [Example 14, 5-Methoxy-pyridine-2-carboxylic acid [3-((S)-2-amino-1,4-dimethyl-6-oxo-1,4,5,6-tetrahydro-pyrimidin-4-yl)-phenyl]-amide]
6.77 | CN1C(=O)C(C)(C)[C@@](C)(c2cc(NC(=O)c3ncoc3-c3ccccc3)ccc2F)N=C1N [Example 109, 5-Phenyl-oxazole-4-carboxylic acid [3-((S)-2-amino-1,4,5,5-tetramethyl-6-oxo-1,4,5,6-tetrahydro-pyrimidin-4-yl)-4-fluoro-phenyl]amide]
7.96 | CN1C(=O)C[C@@](C)(c2cncc(NC(=O)c3ccc(Cl)cn3)c2)N=C1N [Example 52, 5-Chloro-pyridine-2-carboxylic acid [5-((S)-2-amino-1,4-dimethyl-6-oxo-1,4,5,6-tetrahydro-pyrimidin-4-yl)-pyridin-3-yl]-amide]
5.96 | CN1C(=O)C[C@@](C)(c2cccc(NC(=O)c3cccnc3)c2)N=C1N [Example 33, N-[3-((S)-2-Amino-1,4-dimethyl-6-oxo-1,4,5,6-tetrahydro-pyrimidin-4-yl)-phenyl]-nicotinamide]
6.62 | CN1C(=O)C[C@@](C)(c2cccc(NC(=O)c3ncccc3Sc3ccccc3)c2)N=C1N [Example 61, 3-Phenylsulfanyl-pyridine-2-carboxylic acid [3-((S)-2-amino-1,4-dimethyl-6-oxo-1,4,5,6-tetrahydro-pyrimidin-4-yl)-phenyl]-amide]
7.72 | CN1C(=O)C(C)(C)[C@@](C)(c2cc(NC(=O)c3ncc(C(F)(F)F)cc3Cl)ccc2F)N=C1N [Example 118, 3-Chloro-5-trifluoromethyl-pyridine-2-carboxylic acid [3-((S)-2-amino-1,4,5,5-tetramethyl-6-oxo-1,4,5,6-tetrahydro-pyrimidin-4-yl)-4-fluoro-phenyl]amide]
7.21 | CN1C(=O)C[C@@](C)(c2cccc(NC(=O)c3ccn(C)n3)c2)N=C1N [Example 69, 1-Methyl-1H-pyrazole-3-carboxylic acid [3-((S)-2-amino-1,4-dimethyl-6-oxo-1,4,5,6-tetrahydro-pyrimidin-4-yl)-phenyl]-amide]
6.66 | Cc1cccc(C(=O)Nc2cccc([C@]3(C)CC(=O)N(C)C(N)=N3)c2)n1 [Example 32, 6-Methyl-pyridine-2-carboxylic acid [3-((S)-2-amino-1,4-dimethyl-6-oxo-1,4,5,6-tetrahydro-pyrimidin-4-yl)-phenyl]-amide]
